Measurements as given in ChEMBL document CHEMBL4673364, “Synthesis and cytotoxic activity of new 7-acetoxy-12-amino-14-deoxy andrographolide analogues” (Bioorg Med Chem Lett, 2021).

Legend:
[1] = Cytotoxicity against human K213 cells assessed as reduction in cell viability by SRB assay; type: functional, cell-based
HT-29 = assay: Cytotoxicity against human HT-29 cells assessed as reduction in cell viability by SRB assay; type: functional, cell-based
KB = assay: Cytotoxicity against human KB cells assessed as reduction in cell viability by SRB assay; type: functional, cell-based
A549 = assay: Cytotoxicity against human A549 cells assessed as reduction in cell viability by SRB assay; type: functional, cell-based
[2] = Cytotoxicity against rat ASK cells assessed as reduction in cell viability by SRB assay; type: functional, cell-based
MCF7 [3] = assay: Cytotoxicity against human MCF7 cells assessed as reduction in cell viability by SRB assay; type: functional, cell-based
[4] = Cytotoxicity against human P388 cells assessed as reduction in cell viability by SRB assay; type: functional, cell-based
[5] = Cytotoxicity against human K055 cells assessed as reduction in cell viability by SRB assay; type: functional, cell-based
MCF7 [6] = assay: Potency index, ratio of andrographolide IC50 to test compound IC50 for cytotoxicity against human MCF7 cells; type: functional

Structure (SMILES) | IC50 [1] [µM] | IC50 (HT-29) [µM] | IC50 (KB) [µM] | IC50 (A549) [µM] | IC50 [2] [µM] | IC50 (MCF7 [3]) [µM] | IC50 [4] [µM] | IC50 [5] [µM] | Ratio IC50 (MCF7 [6])
C=C1CC[C@@H]2[C@](C)(CO[Si](C)(C)C(C)(C)C)[C@H](OC(C)=O)CC[C@@]2(C)[C@@H]1C/C=C1/C(=O)OC[C@H]1OC(C)=O | 38.7 | 4.69 | 5.05 | 3.99 | 2.41 | 4.84 | 0.3 | 44.3 | –
C=C1[C@@H](OC(C)=O)C[C@@H]2[C@](C)(COC=O)[C@H](OC(C)=O)CC[C@@]2(C)[C@@H]1C[C@@H](Nc1ccccc1)C1=CCOC1=O | 39.8 | 28.8 | 32.1 | 25.8 | 41 | 26.2 | 7.84 | 33.2 | –
C=C1[C@@H](OC(C)=O)C[C@@H]2[C@](C)(CO[Si](C)(C)C(C)(C)C)[C@H](OC(C)=O)CC[C@@]2(C)[C@@H]1C[C@@H](Nc1ccc(C(=O)O)cc1)C1=CCOC1=O | 6.75 | 4.63 | 5.54 | 4.21 | 4.31 | 3.99 | 4.18 | 4.88 | 7
C=C1[C@@H](OC(C)=O)C[C@@H]2[C@](C)(CO[Si](C)(C)C(C)(C)C)[C@H](OC(C)=O)CC[C@@]2(C)[C@@H]1C[C@@H](Nc1ccc(F)cc1)C1=CCOC1=O | 5.25 | 4.94 | 5.09 | 4.55 | 4.63 | 4.34 | 4 | 5.43 | 7
C=C1CC[C@@H]2[C@](C)(CO)[C@H](O)CC[C@@]2(C)[C@@H]1C/C=C1/C(=O)OC[C@H]1O [ANDROGRAPHOLIDE] | 33.9 | 10.8 | 41.5 | 12.2 | 45.4 | 29.1 | 6.91 | 30.2 | –
C=C1[C@@H](OC(C)=O)C[C@@H]2[C@](C)(COC=O)[C@H](OC(C)=O)CC[C@@]2(C)[C@@H]1C[C@@H](Nc1ccccc1C(=O)O)C1=CCOC1=O | 42.6 | 28.7 | 42.5 | 45.9 | > 50 | 30.8 | 9.11 | 40.4 | –
C=C1[C@@H](OC(C)=O)C[C@@H]2[C@](C)(COC=O)[C@H](OC(C)=O)CC[C@@]2(C)[C@@H]1C[C@@H](Nc1ccc(Br)cc1)C1=CCOC1=O | 25.4 | 13.2 | 24 | 15.8 | 49.9 | 11.4 | 4.95 | 24.4 | –
C=C1[C@@H](OC(C)=O)C[C@@H]2[C@](C)(CO[Si](C)(C)C(C)(C)C)[C@H](OC(C)=O)CC[C@@]2(C)[C@@H]1C[C@@H](Nc1ccccc1C(=O)O)C1=CCOC1=O | 5.91 | 5.34 | 6.05 | 4.89 | 4.31 | 4.46 | 4.31 | 5.64 | 7
C=C1[C@@H](OC(C)=O)C[C@@H]2[C@](C)(COC=O)[C@H](OC(C)=O)CC[C@@]2(C)[C@@H]1C[C@@H](Nc1ccc(OC)cc1)C1=CCOC1=O | 40.9 | 25.4 | 32.7 | 28.9 | > 50 | 24.2 | 7.9 | 33.2 | –
C=C1[C@@H](OC(C)=O)C[C@@H]2[C@](C)(COC=O)[C@H](OC(C)=O)CC[C@@]2(C)[C@@H]1C[C@H](C1=CCOC1=O)N1CCOCC1 | 31.7 | 35.1 | > 50 | > 50 | 34.4 | 43.6 | 29.2 | 33.7 | –
C=C1[C@@H](OC(C)=O)C[C@@H]2[C@](C)(CO[Si](C)(C)C(C)(C)C)[C@H](OC(C)=O)CC[C@@]2(C)[C@@H]1C[C@@H](Nc1ccc(OC)cc1)C1=CCOC1=O | 5.2 | 5.37 | 5.63 | 4.81 | 4.56 | 4.28 | 4.03 | 5.6 | –
C=C1[C@@H](OC(C)=O)C[C@@H]2[C@](C)(COC=O)[C@H](OC(C)=O)CC[C@@]2(C)[C@@H]1C[C@@H](Nc1ccc(O)cc1)C1=CCOC1=O | 27.1 | 13.4 | 28.9 | 29.1 | 24.2 | 18.1 | 4.4 | 28.6 | –
Cc1c2ccncc2c(C)c2c1[nH]c1ccccc12 [ELLIPTECINE] | 2.11 | 2.59 | 2.2 | 2.13 | 2.42 | 2.18 | 1.87 | 2.04 | –
C=C1[C@@H](OC(C)=O)C[C@@H]2[C@](C)(COC=O)[C@H](OC(C)=O)CC[C@@]2(C)[C@@H]1C[C@@H](Nc1cccc2ccccc12)C1=CCOC1=O | 31.3 | 8.67 | 32.3 | 35.6 | > 50 | 9.75 | 6.49 | 28.8 | –
C=C1[C@@H](OC(C)=O)C[C@@H]2[C@](C)(COC=O)[C@H](OC(C)=O)CC[C@@]2(C)[C@@H]1C/C=C1/C(=O)OC[C@H]1OC(C)=O | 20.8 | 8.29 | 21.6 | 19 | 19.2 | 12.9 | 4.55 | 15.3 | –
C=C1[C@@H](OC(C)=O)C[C@@H]2[C@](C)(COC=O)[C@H](OC(C)=O)CC[C@@]2(C)[C@@H]1C[C@@H](Nc1ccc(F)cc1)C1=CCOC1=O | 30.2 | 20.5 | 22.9 | 21.2 | 38.6 | 12.4 | 6.31 | 25.8 | –
C=C1[C@@H](OC(C)=O)C[C@@H]2[C@](C)(CO[Si](C)(C)C(C)(C)C)[C@H](OC(C)=O)CC[C@@]2(C)[C@@H]1C[C@@H](Nc1ccc(O)cc1)C1=CCOC1=O | 9.25 | 6.14 | 8.35 | 5.09 | 5 | 5.22 | 5.03 | 5.95 | –
C=C1[C@@H](OC(C)=O)C[C@@H]2[C@](C)(COC=O)[C@H](OC(C)=O)CC[C@@]2(C)[C@@H]1C[C@@H](Nc1ccc(OC)c(OC)c1)C1=CCOC1=O | > 50 | 42.8 | > 50 | > 50 | > 50 | > 50 | 25.8 | 48.2 | –
C=C1[C@@H](OC(C)=O)C[C@@H]2[C@](C)(COC=O)[C@H](OC(C)=O)CC[C@@]2(C)[C@@H]1C[C@@H](Nc1ccccc1F)C1=CCOC1=O | 31 | 9.76 | 29 | 23.6 | 31.6 | 16.4 | 5.97 | 30.3 | –
C=C1[C@@H](OC(C)=O)C[C@@H]2[C@](C)(CO[Si](C)(C)C(C)(C)C)[C@H](OC(C)=O)CC[C@@]2(C)[C@@H]1C[C@@H](Nc1ccc(OC)c(OC)c1)C1=CCOC1=O | 5.15 | 5.33 | 5.8 | 4.87 | 4.95 | 4.31 | 4.53 | 5.73 | –
C=C1[C@@H](OC(C)=O)C[C@@H]2[C@](C)(COC=O)[C@H](OC(C)=O)CC[C@@]2(C)[C@@H]1C[C@@H](Nc1ccc(C(=O)O)cc1)C1=CCOC1=O | > 50 | 37.2 | > 50 | > 50 | > 50 | 41.6 | 22.2 | 48.3 | –
C=C1[C@@H](OC(C)=O)C[C@@H]2[C@](C)(CO[Si](C)(C)C(C)(C)C)[C@H](OC(C)=O)CC[C@@]2(C)[C@@H]1C[C@@H](Nc1cccc(OC)c1)C1=CCOC1=O | 40.1 | > 50 | 45.2 | 17.2 | 39.7 | 28.1 | 27.8 | 44 | –
C=C1[C@@H](C/C=C2/C(=O)OC[C@H]2OC(C)=O)[C@]2(C)CC[C@@H](OC(C)=O)[C@@](C)(CO[Si](C)(C)C(C)(C)C)[C@H]2C[C@@H]1O | 24 | 9.31 | 9.79 | 6.85 | 5.97 | 6.96 | 0.9 | 19.9 | –
C=C1[C@@H](OC(C)=O)C[C@@H]2[C@](C)(COC=O)[C@H](OC(C)=O)CC[C@@]2(C)[C@@H]1C[C@@H](Nc1cccc(F)c1)C1=CCOC1=O | 27.2 | 9.41 | 28.6 | 23.2 | 35.8 | 14.1 | 5.53 | 29.2 | –
C=C1[C@@H](OC(C)=O)C[C@@H]2[C@](C)(CO[Si](C)(C)C(C)(C)C)[C@H](OC(C)=O)CC[C@@]2(C)[C@@H]1C[C@H](C1=CCOC1=O)N1CCOCC1 | – | 37.6 | 35.7 | 24.8 | 26.3 | 31.6 | 20.4 | 28.3 | –
C=C1[C@@H](OC(C)=O)C[C@@H]2[C@](C)(CO[Si](C)(C)C(C)(C)C)[C@H](OC(C)=O)CC[C@@]2(C)[C@@H]1C[C@@H](Nc1cccc2ccccc12)C1=CCOC1=O | 15.3 | 15 | 8.93 | 4.97 | 6.33 | 5.77 | 5.74 | 6.72 | –
